Reference: patent US9828407B2, “Water soluble and activable phenolic derivatives with dermocosmetic and therapeutic applications and process for preparing said derivatives” (LIBRAGEN, priority 2006, dated 2017)
Several values for one entry are separate records, joined by “and”; a condition that tells them apart may be missing. Equal values may be shown once. Read-outs that look alike come from different tables or passages of the source. One block for each compound: values may come before it.

Assays:
[1] = background statement; cited from earlier work
[2] = Solubility in water; type: physicochemical; settings: 25° C.
[3] = test system: α-glucosidase (from Saccharomyces cerevisiae); assay: Activation (hydrolysis) of Taxifolin glucoside by an α-glucosidase preparation; type: biochemical; settings: 18 hours, 30° C., potassium phosphate buffer 0.1 M
Experimental: The reaction media were analysed by HPLC (method 2) after a 2-fold dilution of an aliquot with methanol.

solubility [2]: 1190 µg/mL and 3910 µM
Compound: O=C1c2c(O)cc(O)cc2OC(c2ccc(O)c(O)c2)C1O (centres unmarked) [Taxifolin, 3,5,7,3′,4′-pentahydroxyflavanone]
solubility in aqueous solution [1]: around 1 g/l

Compound: taxifolin O-α-glucoside [Taxifolin glucoside]
colour or odour changes on storage (4° C., 22° C., 37° C. and 45° C., 4 months): No colour or odour changes
Measured quantity of taxifolin glucoside (in % of the initial quantity) (day 0, stored at +4° C.): 100%
Measured quantity of taxifolin glucoside (in % of the initial quantity) (day 0, stored at +22° C.): 100%
Measured quantity of taxifolin glucoside (in % of the initial quantity) (day 0, stored at +37° C.): 100%
Measured quantity of taxifolin glucoside (in % of the initial quantity) (day 0, stored at +45° C.): 100%
Measured quantity of taxifolin glucoside (in % of the initial quantity) (day 9, stored at +4° C.): 100%
Measured quantity of taxifolin glucoside (in % of the initial quantity) (day 9, stored at +22° C.): 100%
Measured quantity of taxifolin glucoside (in % of the initial quantity) (day 9, stored at +37° C.): 100%
Measured quantity of taxifolin glucoside (in % of the initial quantity) (day 9, stored at +45° C.): 100%
Measured quantity of taxifolin glucoside (in % of the initial quantity) (day 23, stored at +4° C.): 100%
Measured quantity of taxifolin glucoside (in % of the initial quantity) (day 23, stored at +22° C.): 100%
Measured quantity of taxifolin glucoside (in % of the initial quantity) (day 23, stored at +37° C.): 100%
Measured quantity of taxifolin glucoside (in % of the initial quantity) (day 23, stored at +45° C.): 91%
Measured quantity of taxifolin glucoside (in % of the initial quantity) (day 37, stored at +4° C.): 100%
Measured quantity of taxifolin glucoside (in % of the initial quantity) (day 37, stored at +22° C.): 100%
Measured quantity of taxifolin glucoside (in % of the initial quantity) (day 37, stored at +37° C.): 100%
Measured quantity of taxifolin glucoside (in % of the initial quantity) (day 37, stored at +45° C.): 94%
Measured quantity of taxifolin glucoside (in % of the initial quantity) (day 63, stored at +4° C.): 100%
Measured quantity of taxifolin glucoside (in % of the initial quantity) (day 63, stored at +22° C.): 95%
Measured quantity of taxifolin glucoside (in % of the initial quantity) (day 63, stored at +37° C.): 96%
Measured quantity of taxifolin glucoside (in % of the initial quantity) (day 63, stored at +45° C.): 79%
Measured quantity of taxifolin glucoside (in % of the initial quantity) (day 118, stored at +4° C.): 100%
Measured quantity of taxifolin glucoside (in % of the initial quantity) (day 118, stored at +22° C.): 100%
Measured quantity of taxifolin glucoside (in % of the initial quantity) (day 118, stored at +37° C.): 91%
Measured quantity of taxifolin glucoside (in % of the initial quantity) (day 118, stored at +45° C.): 73%
conversion of Taxifolin glucoside in the presence of the α-glucosidase enzyme ([3]; pH 7.3): totally converted into Taxifolin
stability of Taxifolin glucoside in the medium without α-glucosidase enzyme ([3]; pH 7.3, no enzyme): remained unchanged
